# System: DMS 114 tumor spheroids, viability % test/control
# Test: Anticancer human tumor DMS 114 cell line growth inhibition;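 note: spheroids exposed to compounds for 7 days before read-out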;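 for viability, T/C: luminescence used as a proxy for viable cells; 100% = DMSO vehicle control viability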
# Details: spheroids with HUVEC and MSC; for IC50: curve of first compound; for viability, T/C: stronger effect = lower value
# In short: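 Single agents and combinations were tested on spheroids built from tumor cells plus HUVEC and hMSC, at half-log dilutions starting at or near clinical Cmax, else 10 microM; final DMSO 0.25% (v/v).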
# [1] = second compound 0.003 µM, first compound 0.0316 µM
# [2] = second compound 0.003 µM, first compound 0.1 µM
# [3] = second compound 0.003 µM, first compound 0.316 µM
# [4] = second compound 0.003 µM, first compound 1 µM
# [5] = second compound 0.003 µM, first compound 3.16 µM
# [6] = second compound 0.003 µM, first compound 10 µM
# [7] = second compound 0.00949 µM, first compound 0.0316 µM
# [8] = second compound 0.00949 µM, first compound 0.1 µM
# [9] = second compound 0.00949 µM, first compound 0.316 µM
# [10] = second compound 0.00949 µM, first compound 1 µM
# [11] = second compound 0.00949 µM, first compound 3.16 µM
# [12] = second compound 0.00949 µM, first compound 10 µM
# [13] = second compound 0.03 µM, first compound 0.0316 µM
# [14] = second compound 0.03 µM, first compound 0.1 µM
# [15] = second compound 0.03 µM, first compound 0.316 µM
# [16] = second compound 0.03 µM, first compound 1 µM
# [17] = second compound 0.03 µM, first compound 3.16 µM
# [18] = second compound 0.03 µM, first compound 10 µM
# [19] = second compound 0.0949 µM, first compound 0.0316 µM
# [20] = second compound 0.0949 µM, first compound 0.1 µM
# [21] = second compound 0.0949 µM, first compound 0.316 µM
# [22] = second compound 0.0949 µM, first compound 1 µM
# [23] = second compound 0.0949 µM, first compound 3.16 µM
# [24] = second compound 0.0949 µM, first compound 10 µM
# [25] = second compound 0.3 µM, first compound 0.0316 µM
# [26] = second compound 0.3 µM, first compound 0.1 µM
# [27] = second compound 0.3 µM, first compound 0.316 µM
# [28] = second compound 0.3 µM, first compound 1 µM
# [29] = second compound 0.3 µM, first compound 3.16 µM
# [30] = second compound 0.3 µM, first compound 10 µM
compound,measurement,setting,value
CC(C)n1c(=O)n(C)c2cnc3cc(F)c(-c4ccc(OCCCN5CCCCC5)nc4)cc3c21 + CC[C@@]1(O)C(=O)OCc2c1cc1n(c2=O)Cc2cc3c(CN(C)C)c(O)ccc3nc2-1,IC50,second compound 0.003 µM,1950 nM
same,IC50,second compound 0.00949 µM,< 31.6 nM
same,IC50,second compound 0.03 µM,< 31.6 nM
same,IC50,second compound 0.0949 µM,< 31.6 nM
same,IC50,second compound 0.3 µM,< 31.6 nM
same,"viability, T/C",[1],75.1%
same,"viability, T/C",[2],72.8%
same,"viability, T/C",[3],63.4%
same,"viability, T/C",[4],61.1%
same,"viability, T/C",[5],43.5%
same,"viability, T/C",[6],16.7%
same,"viability, T/C",[7],37.9%
same,"viability, T/C",[8],37.9%
same,"viability, T/C",[9],33.3%
same,"viability, T/C",[10],31.3%
same,"viability, T/C",[11],25%
same,"viability, T/C",[12],10.4%
same,"viability, T/C",[13],24.7%
same,"viability, T/C",[14],24.6%
same,"viability, T/C",[15],23.9%
same,"viability, T/C",[16],20.2%
same,"viability, T/C",[17],18.2%
same,"viability, T/C",[18],9.25%
same,"viability, T/C",[19],13.6%
same,"viability, T/C",[20],15.6%
same,"viability, T/C",[21],11.3%
same,"viability, T/C",[22],14.2%
same,"viability, T/C",[23],11.2%
same,"viability, T/C",[24],7.13%
same,"viability, T/C",[25],9.95%
same,"viability, T/C",[26],9.05%
same,"viability, T/C",[27],9.41%
same,"viability, T/C",[28],9.97%
same,"viability, T/C",[29],8.36%
same,"viability, T/C",[30],6.56%
COc1ccc([C@@H](O)c2cc(-c3ncnc4cc(N5CCOCC5)ccc34)c(F)cc2Cl)nn1 + CC[C@@]1(O)C(=O)OCc2c1cc1n(c2=O)Cc2cc3c(CN(C)C)c(O)ccc3nc2-1,IC50,second compound 0.003 µM,5390 nM
same,IC50,second compound 0.00949 µM,1760 nM
same,IC50,second compound 0.03 µM,< 31.6 nM
same,IC50,second compound 0.0949 µM,< 31.6 nM
same,IC50,second compound 0.3 µM,< 31.6 nM
same,"viability, T/C",[1],116%
same,"viability, T/C",[2],110%
same,"viability, T/C",[3],109%
same,"viability, T/C",[4],106%
same,"viability, T/C",[5],69%
same,"viability, T/C",[6],27.9%
same,"viability, T/C",[7],89.9%
same,"viability, T/C",[8],73.8%
same,"viability, T/C",[9],78.9%
same,"viability, T/C",[10],57.7%
same,"viability, T/C",[11],40.2%
same,"viability, T/C",[12],17.3%
same,"viability, T/C",[13],30.8%
same,"viability, T/C",[14],32.4%
same,"viability, T/C",[15],32.8%
same,"viability, T/C",[16],25.5%
same,"viability, T/C",[17],13.7%
same,"viability, T/C",[18],13.5%
same,"viability, T/C",[19],16.2%
same,"viability, T/C",[20],16.6%
same,"viability, T/C",[21],16.4%
same,"viability, T/C",[22],14%
same,"viability, T/C",[23],10.1%
same,"viability, T/C",[24],7.97%
same,"viability, T/C",[25],10.7%
same,"viability, T/C",[26],9.61%
same,"viability, T/C",[27],9.29%
same,"viability, T/C",[28],10.1%
same,"viability, T/C",[29],6.94%
same,"viability, T/C",[30],5.57%
O=C(c1cc(Cc2n[nH]c(=O)c3ccccc23)ccc1F)N1CCN(C(=O)C2CC2)CC1 + COc1cc2c(cc1O)CCNC21CSC2c3c(OC(C)=O)c(C)c4c(c3C(COC1=O)N1C(O)C3Cc5cc(C)c(OC)c(O)c5C(C21)N3C)OCO4,IC50,second compound 30 pM,5540 nM
same,IC50,second compound 94.9 pM,3670 nM
same,IC50,second compound 0.0003 µM,< 94.9 nM
same,IC50,second compound 0.000949 µM,< 94.9 nM
same,IC50,second compound 0.003 µM,< 94.9 nM
same,"viability, T/C","second compound 30 pM, first compound 0.0949 µM",106%
same,"viability, T/C","second compound 30 pM, first compound 0.3 µM",103%
same,"viability, T/C","second compound 30 pM, first compound 0.949 µM",97.1%
same,"viability, T/C","second compound 30 pM, first compound 3 µM",83.8%
same,"viability, T/C","second compound 30 pM, first compound 9.49 µM",20.2%
same,"viability, T/C","second compound 30 pM, first compound 30 µM",17.4%
same,"viability, T/C","second compound 94.9 pM, first compound 0.0949 µM",92.3%
same,"viability, T/C","second compound 94.9 pM, first compound 0.3 µM",94.6%
same,"viability, T/C","second compound 94.9 pM, first compound 0.949 µM",88.1%
same,"viability, T/C","second compound 94.9 pM, first compound 3 µM",57.2%
same,"viability, T/C","second compound 94.9 pM, first compound 9.49 µM",17.3%
same,"viability, T/C","second compound 94.9 pM, first compound 30 µM",13.7%
same,"viability, T/C","second compound 0.0003 µM, first compound 0.0949 µM",29.5%
same,"viability, T/C","second compound 0.0003 µM, first compound 0.3 µM",21.9%
same,"viability, T/C","second compound 0.0003 µM, first compound 0.949 µM",23.2%
same,"viability, T/C","second compound 0.0003 µM, first compound 3 µM",14.8%
same,"viability, T/C","second compound 0.0003 µM, first compound 9.49 µM",7.77%
same,"viability, T/C","second compound 0.0003 µM, first compound 30 µM",7.92%
same,"viability, T/C","second compound 0.000949 µM, first compound 0.0949 µM",3.19%
same,"viability, T/C","second compound 0.000949 µM, first compound 0.3 µM",2.4%
same,"viability, T/C","second compound 0.000949 µM, first compound 0.949 µM",2.21%
same,"viability, T/C","second compound 0.000949 µM, first compound 3 µM",2.86%
same,"viability, T/C","second compound 0.000949 µM, first compound 9.49 µM",1.24%
same,"viability, T/C","second compound 0.000949 µM, first compound 30 µM",0.5%
same,"viability, T/C","second compound 0.003 µM, first compound 0.0949 µM",0.24%
same,"viability, T/C","second compound 0.003 µM, first compound 0.3 µM",0.22%
same,"viability, T/C","second compound 0.003 µM, first compound 0.949 µM",0.19%
same,"viability, T/C","second compound 0.003 µM, first compound 3 µM",0.2%
same,"viability, T/C","second compound 0.003 µM, first compound 9.49 µM",0.19%
same,"viability, T/C","second compound 0.003 µM, first compound 30 µM",0.4%
